How the values were obtained:
DPX2 cells = conditions: for DPX2 Viability @ 6.25 μM: 24 h; for DPX2 Viability @ 25 μM: human
MTB H37Rv ATCC 27294 = experiment: MIC, microplate Alamar Blue assay (MABA); assay type: cell-based, Mycobacterium tuberculosis; conditions: for MIC90: Mycobacterium tuberculosis, MTB H37Rv ATCC 27294, microplate Alamar Blue assay, lowest concentration giving ≥90% reduction in fluorescence

Row | SMILES | DPX2 Viability @ 6.25 μM (DPX2 cells) | DPX2 Viability @ 25 μM (DPX2 cells) | MIC90 MABA Rel to RMP (MTB H37Rv ATCC 27294) | MIC90 (MTB H37Rv ATCC 27294)
1 | CO[C@H]1/C=C/O[C@@]2(C)Oc3c(C)c(O)c4c(=O)c(c5oc6cc(N7CCN(CC(C)C)CC7)cc(N7CCN(CC(C)C)CC7)c6nc-5c4c3C2=O)NC(=O)/C(C)=C\C=C\[C@H](C)[C@H](O)[C@@H](C)[C@@H](O)[C@@H](C)[C@H](OC(C)=O)[C@@H]1C [Compound 17u, 7S,9E,11S,12R,13S,14R,15R,16R,17S,18S,19E,21Z)-2,15,17-trihydroxy-11-methoxy-3,7,12,14,16,18,22-heptamethyl-30,32-bis[4-(2-methylpropyl)piperazin-1-yl]-6,23,37-trioxo-8,27,38-trioxa-24,34-diazahexacyclo[23.11.1.1^4,7.0^5,36.0^26,35.0^28,33]octatriaconta-1,3,5(36)9,19,21,25,28,30,32,34-undecaen-13-yl acetate] | 106% | 90% | – | –
2 | CO[C@H]1/C=C/O[C@@]2(C)Oc3c(C)c(O)c4c(=O)c(c5oc6cc(N7CCN(CCn8ccnc8)CC7)cc(C)c6nc-5c4c3C2=O)NC(=O)/C(C)=C\C=C\[C@H](C)[C@H](O)[C@@H](C)[C@@H](O)[C@@H](C)[C@H](OC(C)=O)[C@@H]1C [Compound 26c, (7S,9E,11S,12R,13S,14R,15R,16R,17S,18S,19E,21Z)-2,15,17-trihydroxy-30-{4-[2-(1H-imidazol-1-yl)ethyl]piperazin-1-yl}-11-methoxy-3,7,12,14,16,18,22,32-octamethyl-6,23,37-trioxo-8,27,38-trioxa-24,34-diazahexacyclo[23.11.1.1^4,7.0^5,36.0^26,35.0^28,33]octatriaconta-1(36)2,4,9,19,21,25,28,30,32,34-undecaen-13-yl acetate] | 108% | 96% | – | –
3 | CO[C@H]1/C=C/O[C@@]2(C)Oc3c(C)c(O)c4c(=O)c(c5oc6cc(N7CCN(C(C)=O)CC7)cc(C)c6nc-5c4c3C2=O)NC(=O)/C(C)=C\C=C\[C@H](C)[C@H](O)[C@@H](C)[C@@H](O)[C@@H](C)[C@H](OC(C)=O)[C@@H]1C [Compound 26d, (7S,9E,11S,12R,13S,14R,15R,16R,17S,18S,19E,21Z)-30-(4-Acetylpiperazin-1-yl)-2,15,17-trihydroxy-11-methoxy-3,7,12,14,16,18,22,32-octamethyl-6,23,37-trioxo-8,27,38-trioxa-24,34-diazahexacyclo[23.11.1.1^4,7.0^5,36.0^26,35.0^28,33]octatriaconta-1(36)2,4,9,19,21,25,28,30,32,34-undecaen-13-yl acetate] | 106% | 88% | 0.35 | 9.4 nM
4 | CCC(=O)N1CCN(c2cc(C)c3nc4c5c6c7c(C)c(O)c5c(=O)c(c-4oc3c2)NC(=O)/C(C)=C\C=C\[C@H](C)[C@H](O)[C@@H](C)[C@@H](O)[C@@H](C)[C@H](OC(C)=O)[C@H](C)[C@@H](OC)/C=C/O[C@@](C)(O7)C6=O)CC1 [Compound 26e, (7S,9E,11S,12R,13S,14R,15R,16R,17S,18S,19E,21Z)-2,15,17-Trihydroxy-11-methoxy-3,7,12,14,16,18,22,32-octamethyl-6,23,37-trioxo-30-(4-propanoylpiperazin-1-yl)-8,27,38-trioxa-24,34-diazahexacyclo[23.11.1.1^4,7.0^5,36.0^26,35.0^28,33]octatriaconta-1(36)2,4,9,19,21,25,28,30,32,34-undecaen-13-yl acetate] | 101% | 97% | 0.35 | 9.4 nM
